Where only a bound is given, the exact number is not on record here.

In one assay the target is T1, Human plasmin (Homo sapiens, UniProt P00747).
T1 construct: Human plasmin is purchased from Boehringer Mannheim; purchased Boehringer Mannheim, Indianapolis, Indiana
Kind of assay: Fibrinolytic protease selectivity, Kass, plasmin chromogenic assay. Type of assay: biochemical. The note with it: apparent association constant. How it is done: (§1) By substantially following the procedures described above for human thrombin, and using other human blood coagulation system serine proteases and proteases of the fibrinolytic system with the appropriate chromogenic substrates, identified below, selectivity of the compounds of the present invention with respect to the coagulation factor serine proteases and with respect to the fibrinolytic system serine proteases are evaluated as well as their substantial lack of interference with serine proteases of the fibrinolytic system. Thrombin inhibitors preferably should spare fibrinolysis induced by urokinase, tissue plasminogen activator (t-PA) and streptokinase. This would be important to the therapeutic use of such agents as an adjunct to streptokinase, t-PA or urokinase thrombolytic therapy and to the use of such agents as an endogenous fibrinolysis-sparing (with respect to t-PA and urokinase) antithrombotic agent. In addition to the lack of interference with the amidase activity of the fibrinolytic proteases, such fibrinolytic system sparing can be studied by the use of human plasma clots and their lysis by the respective fibrinolytic plasminogen activators.
(§2) Human plasmin is purchased from Boehringer Mannheim, Indianapolis, Indiana; nt-PA is purchased as single chain activity reference from American Diagnostica, Greenwich, Conn.; modified-t-PA6 (mt-PA6) is prepared at Eli Lilly and Company by procedure known in the art (See, Burck, et al., J. Biol. Chem., 265, […] (1990). Plasmin chromogenic substrate H--D--Val--Leu--Lys--p--nitroanilide and tissue plasminogen activator (t-PA) substrate H--D--Ile--Pro--Arg--p--nitroanilide are purchased from Kabi Vitrum, Stockholm, Sweden.

The next assay concerns the target T2, human thrombin (Homo sapiens, UniProt P00734).
T2 construct: purified human thrombin, Enzyme Research Laboratories; purchased Enzyme Research Laboratories, South Bend, Indiana
Kind of assay: Inhibition of amidase activity of thrombin (Kass), chromogenic substrate. Particulars: apparent association constant, mean over a range of concentrations. Type of assay: biochemical. How it is done: The assay is carried out by mixing 50 μL buffer (0.03 M Tris, 0.15 M NaCl, pH 7.4) with 25 μL of bovine thrombin or human thrombin solution (0.21 mg/mL of thrombostat bovine thrombin, Parke-Davis, or purified human thrombin, Enzyme Research Laboratories, South Bend, Indiana, at about 8 NIH units/mL, in the same buffer) and 25 μL of test compound in a solvent (in 50% aqueous methanol, v:v). The 150 μL of an aqueous solution of the chromogenic substrate (at 0.25 mg/mL) are added and the rates of hydrolysis of the substrate are measured by monitoring the reactions at 405 nm for the release of p-nitroaniline. Standard curves are constructed by plotting free thrombin concentration against hydrolysis rate. The hydrolysis rates observed with test compounds are then converted to "free thrombin" values in the respective assays by use of the standard curves. The bound thrombin (bound to test compound) is calculated by subtracting the amount of free thrombin observed in each assay from the known initial amount of thrombin used in the assay. The amount of free inhibitor in each assay is calculated by subtracting the number of moles of bound thrombin from the number of moles of added inhibitor (test compound).
The Kass value is the hypothetical equilibrium constant for the reaction between thrombin and the test compound (I). [formula]
Kass is calculated for a range of concentrations of test compounds and the mean value is reported in units of liter per mole.

Assay [1] relates to human plasma. Kind of assay: Human plasma anticoagulation, thrombin time (TT). Particulars: concentration required to double the thrombin time, linear extrapolation. How it is done:
(§3) Dog plasma and rat plasma is obtained from conscious mixed-breed hounds (either sex, Hazelton-LRE, Kalamazoo, Mich., U.S.A.) or from anesthetized male Sprague-Dawley rats (Harlan Sprague-Dawley, Inc., Indianapolis, Ind., U.S.A.) by venipuncture into 3.8 percent citrate. Fibrinogen is prepared from in-date ACD human blood as the fraction I-2 according to previous procedures and specifications. Smith, Biochem. J., 185, 1-11 (1980); and Smith, et al., Biochemistry, 11, 2958-2967 (1972). Human fibrinogen is also purchased as 98 percent pure/plasmin free from American Diagnostica, Greenwich, Conn. Coagulation reagents ACTIN, Thromboplastin, and Human plasma are from Baxter Healthcare Corp., Dade Division, Miami, Fla. Bovine thrombin from Parke-Davis ([…], Mich.) is used for coagulation assays in plasma.
(§4) Coagulation assay procedures are as previously described. Smith, et al., Thrombosis Research, 50, 163-174 (1988). A CoAScreener coagulation instrument (American LABor, Inc.) is used for all coagulation assay measurements. The prothrombin time (PT) is measured by adding 0.05 mL saline and 0.05 mL Thromboplastin-C reagent to 0.05 mL test plasma. The activated partial thromboplastin time (APTT) is measured by incubation of 0.05 mL test plasma with 0.05 mL Actin reagent for 120 seconds followed by 0.05 mL CaCl2 (0.02 M). The thrombin time (TT) is measured by adding 0.05 mL saline and 0.05 mL thrombin (10 NIH units/mL) to 0.05 mL test plasma. The compounds of formula I are added to human or animal plasma over a wide range of concentrations to determine prolongation effects on the APTT, PT, and TT assays. Linear extrapolations are performed to estimate the concentrations required to double the clotting time for each assay.

The target in a further assay is T3, Bovine trypsin (Bos taurus, UniProt P00760).
T3 construct: purchased Worthington Biochemicals, Freehold, N.J
T3 sequence (P00760 24-246): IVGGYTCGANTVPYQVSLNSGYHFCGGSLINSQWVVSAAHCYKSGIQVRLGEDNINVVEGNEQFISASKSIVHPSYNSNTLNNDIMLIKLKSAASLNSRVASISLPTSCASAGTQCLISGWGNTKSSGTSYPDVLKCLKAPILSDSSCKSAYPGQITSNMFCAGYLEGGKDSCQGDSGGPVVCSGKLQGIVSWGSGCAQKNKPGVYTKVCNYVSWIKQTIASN
Kind of assay: Serine protease selectivity, Kass, trypsin chromogenic assay. Type of assay: biochemical. The note with it: apparent association constant. Here is the method:
as §1
(§5) Human factors X, Xa, IXa, XIa, and XIIa are purchased from Enzyme Research Laboratories, South Bend, Ind.; human urokinase from Leo Pharmaceuticals, Denmark; and recombinant activated Protein C (aPC) is prepared at Eli Lilly and Co. substantially according to U.S. Pat. No. 4,981,952 incorporated by reference herein in its entirety. Chromogenic substrates: N--Benzoyl--Ile--Glu--Gly--Arg--p--nitroanilide (for factor Xa); N--Cbz--D--Arg--Gly--Arg--p--nitroanilide (for factor IXa assay as the factor Xa substrate); Pyroglutamyl--Pro--Arg--p--nitroanilide (for Factor XIa and for aPC); H--D--Pro--Phe--Arg--p--nitroanilide (for factor XIIa); and Pyroglutamyl--Gly--Arg--p--nitroanilide (for urokinase); are purchased from KabiVitrum, Stockholm, Sweden, or from Midwest Biotech, Fishers, Indiana. Bovine trypsin is purchased from Worthington Biochemicals, Freehold, N.J., and human plasma kallikrein from Kabi Vitrum, Stockholm, Sweden. Chromogenic substrate H--D--Pro--Phe--Arg--p--nitroanilide for plasma kallikrein is purchased from Kabi Vitrum, Stockholm, Sweden. N--Benzoyl--Phe--Val--Arg--p--nitroanilide, the substrate for human thrombin and for trypsin, is synthesized according to procedures described above for the compounds of the present invention, using known methods of peptide coupling from commercially available reactants or purchased from Midwest Biotech, Fishers, Ind.

The target in assay [2] is T4, tissue plasminogen activator (t-PA) (Homo sapiens, UniProt P00750).
T4 construct: purchased American Diagnostica, Greenwich, Conn
Kind of assay: Fibrinolytic protease selectivity, Kass, t-PA chromogenic assay. It counts as biochemical. Particulars: apparent association constant. How it is done:
as §1, §2

The target in the next assay is T5, factor Xa (Homo sapiens, UniProt P00742).
T5 construct: Human factors X, Xa, IXa, XIa, and XIIa are purchased from Enzyme Research Laboratories; purchased Enzyme Research Laboratories, South Bend, Ind
Kind of assay: Serine protease selectivity, Kass, factor Xa chromogenic assay. It counts as biochemical. The note with it: apparent association constant. Here is the method:
as §1, §5

For assay [3], the system named is human plasma. Kind of assay: Human plasma anticoagulation, prothrombin time (PT). The note with it: concentration required to double the PT, linear extrapolation. How it is done:
as §3, §4

Assay [4] concerns human plasma. Kind of assay: Human plasma anticoagulation, activated partial thromboplastin time (APTT). Particulars: concentration required to double the APTT, linear extrapolation. How it is done: as §3, §4

T5 sequence (P00742 235-488 limits assumed): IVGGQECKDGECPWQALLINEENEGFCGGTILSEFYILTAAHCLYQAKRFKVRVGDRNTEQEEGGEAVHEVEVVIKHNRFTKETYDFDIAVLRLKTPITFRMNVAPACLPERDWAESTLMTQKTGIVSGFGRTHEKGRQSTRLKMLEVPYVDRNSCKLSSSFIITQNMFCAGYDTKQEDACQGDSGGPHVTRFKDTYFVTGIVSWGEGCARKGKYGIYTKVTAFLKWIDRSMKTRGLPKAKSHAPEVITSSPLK
T5 sequence (P00742 41-179 partner limits assumed): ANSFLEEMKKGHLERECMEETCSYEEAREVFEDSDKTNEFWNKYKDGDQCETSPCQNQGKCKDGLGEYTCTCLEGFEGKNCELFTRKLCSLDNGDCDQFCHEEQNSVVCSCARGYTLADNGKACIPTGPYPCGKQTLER
T4 sequence (P00750 36-562): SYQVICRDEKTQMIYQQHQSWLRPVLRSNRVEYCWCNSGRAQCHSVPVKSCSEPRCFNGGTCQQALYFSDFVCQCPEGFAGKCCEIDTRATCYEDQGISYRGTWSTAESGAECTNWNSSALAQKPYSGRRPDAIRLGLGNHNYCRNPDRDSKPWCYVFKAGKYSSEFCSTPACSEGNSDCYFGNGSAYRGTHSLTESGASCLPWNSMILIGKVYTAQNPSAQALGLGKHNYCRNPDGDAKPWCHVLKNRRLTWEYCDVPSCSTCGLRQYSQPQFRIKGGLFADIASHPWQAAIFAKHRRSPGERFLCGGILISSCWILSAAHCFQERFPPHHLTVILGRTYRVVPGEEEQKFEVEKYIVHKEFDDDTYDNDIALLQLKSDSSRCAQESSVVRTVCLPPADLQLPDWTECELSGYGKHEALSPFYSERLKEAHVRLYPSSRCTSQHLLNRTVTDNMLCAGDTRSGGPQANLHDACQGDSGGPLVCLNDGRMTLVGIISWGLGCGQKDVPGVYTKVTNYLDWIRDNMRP
T1 sequence (P00747 581-810 limits assumed): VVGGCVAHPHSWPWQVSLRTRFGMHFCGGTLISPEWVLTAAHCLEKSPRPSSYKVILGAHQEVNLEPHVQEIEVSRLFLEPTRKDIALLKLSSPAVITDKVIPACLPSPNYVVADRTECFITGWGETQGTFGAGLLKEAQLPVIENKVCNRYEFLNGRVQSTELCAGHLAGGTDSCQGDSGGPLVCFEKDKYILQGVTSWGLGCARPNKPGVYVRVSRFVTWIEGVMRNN
T1 sequence (P00747 97-580 partner limits assumed): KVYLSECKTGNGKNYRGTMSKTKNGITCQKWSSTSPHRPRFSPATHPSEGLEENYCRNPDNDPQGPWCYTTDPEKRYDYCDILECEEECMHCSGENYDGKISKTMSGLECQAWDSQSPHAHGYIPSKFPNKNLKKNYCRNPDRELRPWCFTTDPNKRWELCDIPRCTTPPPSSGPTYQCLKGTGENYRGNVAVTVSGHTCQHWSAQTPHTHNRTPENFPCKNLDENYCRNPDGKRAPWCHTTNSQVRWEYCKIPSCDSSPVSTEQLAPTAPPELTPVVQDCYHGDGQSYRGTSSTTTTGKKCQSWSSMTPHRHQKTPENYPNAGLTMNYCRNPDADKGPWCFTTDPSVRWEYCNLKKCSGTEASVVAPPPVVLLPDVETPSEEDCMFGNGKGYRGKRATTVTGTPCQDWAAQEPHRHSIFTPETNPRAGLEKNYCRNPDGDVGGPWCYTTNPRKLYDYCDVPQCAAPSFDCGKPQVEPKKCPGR

Regarding `Cl.Cl.NC(N)=NCCC[C@@H](C=O)NC(=O)CN(CCc1ccccc1)C(=O)[C@H]1CCCN1` [Example 18, D--Pro--N(CH2 CH2 Ph)Gly--ArgH.2HCl], at Human plasmin, the “Enzyme Kass Plasmin” value is reported as 0.34 L/mol × 10^6. Also, the “Enzyme Kass Human Thrombin” value at human thrombin is 5.1 L/mol × 10^6. Further, the “Human Plasma Anticoagulation 2 × Clotting time TT” value with human plasma [1] is listed as 170 ng/mL. The “Enzyme Kass Trypsin” value on Bovine trypsin turned out to be 1.1 L/mol × 10^6. Also, in assay [2], the “Enzyme Kass t-PA” value amounted to 0.001 L/mol × 10^6. Besides, the “Enzyme Kass Xa” value at factor Xa was determined as 0.47 L/mol × 10^6. The “Human Plasma Anticoagulation 2 × Clotting time PT” value in the assay on human plasma [3] is reported as 3,900 ng/mL. Further, the “Human Plasma Anticoagulation 2 × Clotting time APTT” value in the assay on human plasma [4] was 3,300 ng/mL.

As for `Cl.Cl.N=C(N)NCCC[C@@H](C=O)NC(=O)CN(CCc1ccccc1)C(=O)[C@@H]1CCCN1` [Example 19, L--Pro--N(CH2 CH2 Ph)Gly--ArgH.2HCl], the “Enzyme Kass Plasmin” value at Human plasmin was 0.22 L/mol × 10^6. Besides, the “Enzyme Kass Human Thrombin” value at human thrombin came out at 0.64 L/mol × 10^6. The “Human Plasma Anticoagulation 2 × Clotting time TT” value in the assay with human plasma [1] is 490 ng/mL. Further, the “Enzyme Kass Trypsin” value at Bovine trypsin was found to be 0.22 L/mol × 10^6. Also, in assay [2], the “Enzyme Kass t-PA” value is recorded as below 0.001 L/mol × 10^6. In addition, the “Enzyme Kass Xa” value on factor Xa is 0.11 L/mol × 10^6. The “Human Plasma Anticoagulation 2 × Clotting time PT” value in the assay with human plasma [3] was 10,000 ng/mL. The “Human Plasma Anticoagulation 2 × Clotting time APTT” value in the assay on human plasma [4] is given as 10,000 ng/mL.

(Values after US6090787A, “Antithrombotic agents” (Eli Lilly and Company, priority 1999, dated 2000).)
